Results published in publication PMC8491704, “Pharmacokinetic study of Tangwang Mingmu granule for the management of diabetic retinopathy based on network pharmacology” (Pharmaceutical Biology, 2021).
Like-named read-outs stand apart in the source and are kept apart here.

What was measured:
[1] = tested on: HUVEC cells; test: Assay of intracellular reactive oxygen species (ROS), DCFH-DA, high glucose; assay type: cell-based, human; settings: luteolin 20, 10, 5 µM or formononetin 40, 20, 10 µM for 2 h, then high glucose 24 h
Procedure: The generation of ROS was detected using dichloro-dihydro-fluorescein diacetate (DCFH-DA, reactive oxygen species assay kit, Solarbio, Beijing) as per manufacturer instructions. In this study, we seeded HUVEC cells in a 96-well plate at 7 × 10^3 per well. […] DCF fluorescence was assessed at F488/525 nm by using a bioassay multi-detection fluorescent plate reader (Tecan Spark, Switzerland).

[2] = Stability of QC samples of 8 compounds in rat plasma (25 °C 4 h, autosampler 12 h, three freeze-thaw cycles, −80 °C 7 d); assay type: in vitro ADME; settings: rat, plasma; for Stability in rat plasma, Long term (7 day, –80 °C), Measured: 168 h
Procedure: The calibration curves were assessed at eight concentration levels using the correlation coefficient (r). The lower limit of quantification (LLOQ) could fulfil the analytical requirements and achieved reliable accuracy and precision with a signal-to-noise ratio (S/N) ≥ 10. To determine intra- and inter-day precision and accuracy, six replicate quality control (QC) samples at three concentrations were prepared. Inter- and intra-day precision was evaluated by determining relative standard deviation (RSD) values, while accuracy was expressed in terms of the relative error (RE). The extraction recoveries were determined using three concentration levels and calculated by comparing the peak area of extracted samples with post-extracted spiked samples. Subsequently, matrix effects were assessed using the peak area of post-extracted spiked samples contrasted with QC samples at the three concentration levels. The stability test of QC samples at the three concentration levels was as follows: storage at 25 °C for 4 h, storage in an autosampler for 12 h, freeze-thaw cycle for three times, and storage at −80 °C for 7 d.
The stability tests were carried out under three freeze-thaw cycles, at 25 °C for 4 h, in an autosampler for 12 h, and at −80 °C for 7 d.

[3] = Pharmacokinetic study in SD rats after oral administration of TWMM (UPLC-QQQ-MS of plasma); assay type: in vivo, Sprague-Dawley (SD) rats; settings: oral TWMM 9.6 g/kg; for AUC(0-t): n = 6, read-out: AUC (0–36); for Cmax: n = 6, read-out: Cmax; for MRT last: n = 6, read-out: MRT (0–36); for MRT inf: n = 6, read-out: MRT (0–∞); for AUC(0-inf): read-out: areas under the concentration-time curve (AUC0–∞)
Procedure: Chromatographic separation was performed using an ACQUITY UPLC H-Class system equipped with a 1.8 μm HSS T3 analytical column (100 mm × 2.1 i.d., Waters Corporation, Milford, USA). […] ESI source was set to negative ionisation mode while the analysis was performed using multiple reaction monitorin. Ion spray voltage (3000 V), capillary temperature (450 °C), and the source parameters of the nine compounds are shown in Table 2.
The data obtained from the UPLC/Q-Orbitrap MS was imported into Xcalibur 4.0 software for analysis. Furthermore, the constituents acquired using GCMS-QP 2010 were profiled by comparison using the National Institute of Standards and Technology (NIST) database. The pharmacokinetic data were processed through MassLynx 4.1, and DAS 2.0 software was used to calculate the pharmacokinetic parameters according to the compartment model.
Six male SD rats (average weight: 220 ± 10 g) were acquired from Beijing Vital-River Laboratory Animal Technology Co., Ltd. All rats were acclimatized to an environmentally controlled laboratory for a week. Following this period, the rats were exposed to fasting conditions for 12 h but were allowed free access to water before the experiment. The rats were orally administered TWMM at a dose of 9.6 g/kg. Blood samples (300 µL) were collected into heparinized centrifuge tubes from the fossa orbitalis at pre-dose and 0.03, 0.08, 0.17, 0.25, 0.5, 1, 2, 4, 8, 12, 24, and 36 h intervals. The samples were immediately centrifuged at 6000 g for 10 min at 4 °C and the supernatants were transferred to clean centrifuge tubes.
Each 100 µL plasma sample was mixed with 20 µL of methanol, 20 µL of IS (5 µg/mL), and 600 µL acetonitrile. The mixtures were centrifuged at 15,000 g for 10 min at 4 °C after being vortexed for 3 min. The obtained supernatants were transferred to clean 1.5 mL centrifuge tubes, followed by evaporation under a milt nitrogen stream. Next, the obtained residues were individually redissolved in 100 µL of methanol and centrifuged at 15,000 g for 10 min at 4 °C after vortexed for 3 min. Lastly, 10 µL of individual supernatant was injected for analysis.

[4] = set-up: method as in Guan et al. 2014; Cheruvu et al. 2018; Jia et al. 2020; settings: in different herbal extracts and prescriptions; ref Guan et al. 2014; Cheruvu et al. 2018; Jia et al. 2020; cited from earlier work
[5] = male, Sprague-Dawley, rat, n = 6

Structure (SMILES)	ROS generation induced by HG [1]	Stability in rat plasma, Three freeze/thaw cycles, Measured ([2]; 1 ng/mL)	Stability in rat plasma, Three freeze/thaw cycles, Measured ([2]; 10 ng/mL)	Stability in rat plasma, Three freeze/thaw cycles, Measured ([2]; 200 ng/mL)	Stability in rat plasma, Room temperature (4 h, 25 °C), Measured ([2]; 1 ng/mL)	Stability in rat plasma, Room temperature (4 h, 25 °C), Measured ([2]; 10 ng/mL)	Stability in rat plasma, Room temperature (4 h, 25 °C), Measured ([2]; 200 ng/mL)	Stability in rat plasma, Autosampler (12 h, 4 °C), Measured ([2]; 1 ng/mL)	Stability in rat plasma, Autosampler (12 h, 4 °C), Measured ([2]; 10 ng/mL)	Stability in rat plasma, Autosampler (12 h, 4 °C), Measured ([2]; 200 ng/mL)	Stability in rat plasma, Long term (7 day, –80 °C), Measured ([2]; 1 ng/mL)	Stability in rat plasma, Long term (7 day, –80 °C), Measured ([2]; 10 ng/mL)	Stability in rat plasma, Long term (7 day, –80 °C), Measured ([2]; 200 ng/mL)	half-life [3, 5]	AUC(0-t) ([3]; male, Sprague-Dawley, rat)	Cmax ([3]; male, Sprague-Dawley, rat)	MRT last ([3]; male, Sprague-Dawley, rat)	MRT inf ([3]; male, Sprague-Dawley, rat)	AUC(0-inf) ([3]; male, Sprague-Dawley, rat)	Tmax ([3]; n = 6)	also measured
COc1ccc(-c2coc3cc(O)ccc3c2=O)cc1 [Formononetin]	could alleviate the symptom of DR	1.0 ± 0.1 ng/mL	10.1 ± 1.0 ng/mL	206.3 ± 21.0 ng/mL	1.1 ± 0.1 ng/mL	11.8 ± 0.2 ng/mL	220.6 ± 3.5 ng/mL	1.2 ± 0.1 ng/mL	10.1 ± 0.2 ng/mL	222.6 ± 3.6 ng/mL	1.1 ± 0.1 ng/mL	10.2 ± 0.2 ng/mL	216.0 ± 4.3 ng/mL	11.7 ± 2.09 h	40.8 ± 8.51 ng·h/mL	6.17 ± 1.65 ng/mL	10.7 ± 1.17 h	15.7 ± 1.9 h	46 ± 7.89 ng·h/mL	0.46 ± 0.29 h	Tmax ([3]; n = 6, listed as formononetin): ≤ 1 h
O=c1cc(-c2ccc(O)c(O)c2)oc2cc(O)cc(O)c12 [Luteolin]	could alleviate the symptom of DR	1.1 ± 0.1 ng/mL	11.4 ± 0.8 ng/mL	218.0 ± 9.9 ng/mL	1.2 ± 0.1 ng/mL	11.3 ± 0.3 ng/mL	217.9 ± 11.7 ng/mL	1.1 ± 0.1 ng/mL	10.0 ± 0.2 ng/mL	205.6 ± 0.9 ng/mL	1.0 ± 0.1 ng/mL	10.4 ± 0.6 ng/mL	221.9 ± 6.8 ng/mL	11.1 ± 10.2 h	38.5 ± 7.61 ng·h/mL	3.27 ± 0.78 ng/mL	11.4 ± 1.23 h	18.2 ± 9.14 h	44 ± 4.19 ng·h/mL	–	Tmax [4]: 0.50 to 2.83 h; t1/2 [4]: 3.63 to 12.10 h; Tmax ([3]; male, Sprague-Dawley, rat, po, 9.6 g/kg, n = 6, read-out: Tmax): 1.71 ± 1.79 h
C[C@@H]1O[C@@H](O[C@@H]2[C@@H](O)[C@H](OCCc3ccc(O)c(O)c3)O[C@H](CO)[C@H]2OC(=O)/C=C/c2ccc(O)c(O)c2)[C@H](O)[C@H](O)[C@H]1O [Verbascoside]	–	–	–	–	–	–	–	–	–	–	–	–	–	2.08 ± 0.38 h	175 ± 40.8 ng·h/mL	45.5 ± 21.2 ng/mL	8.9 ± 3.44 h	8.91 ± 3.44 h	175 ± 40.8 ng·h/mL	0.25 ± 0.14 h	Stability in rat plasma, Three freeze/thaw cycles, Measured ([2]; 2 ng/mL): 2.0 ± 0.1 ng/mL; Stability in rat plasma, Three freeze/thaw cycles, Measured ([2]; 20 ng/mL): 21.8 ± 1.9 ng/mL; Stability in rat plasma, Three freeze/thaw cycles, Measured ([2]; 400 ng/mL): 416.4 ± 17.6 ng/mL; Stability in rat plasma, Room temperature (4 h, 25 °C), Measured ([2]; 2 ng/mL): 2.2 ± 0.1 ng/mL; Stability in rat plasma, Room temperature (4 h, 25 °C), Measured ([2]; 20 ng/mL): 19.6 ± 1.0 ng/mL; Stability in rat plasma, Room temperature (4 h, 25 °C), Measured ([2]; 400 ng/mL): 427.6 ± 13.8 ng/mL; Stability in rat plasma, Autosampler (12 h, 4 °C), Measured ([2]; 2 ng/mL): 2.1 ± 0.2 ng/mL; Stability in rat plasma, Autosampler (12 h, 4 °C), Measured ([2]; 20 ng/mL): 23.8 ± 1.8 ng/mL; Stability in rat plasma, Autosampler (12 h, 4 °C), Measured ([2]; 400 ng/mL): 402.4 ± 19.1 ng/mL; Stability in rat plasma, Long term (7 day, –80 °C), Measured ([2]; 2 ng/mL): 1.9 ± 0.2 ng/mL; Stability in rat plasma, Long term (7 day, –80 °C), Measured ([2]; 20 ng/mL): 21.3 ± 1.8 ng/mL; Stability in rat plasma, Long term (7 day, –80 °C), Measured ([2]; 400 ng/mL): 430.0 ± 6.2 ng/mL; Tmax ([3]; n = 6, listed as verbascoside): ≤ 1 h; t1/2 ([3]; n = 6, listed as verbascoside): rapid elimination
